In US12453709B2, “Compositions and methods for treating autism” (priority 2013, dated 2025):
Marks after values point to notes of the source that are not given here.

System: male patients diagnosed with autism
Experiment: Study HT 02-121: adverse events
Format: in vivo, human
Protocol: The purpose of this clinical study (referred to herein as “Study HT 02-121”; i.e., Example 6) was to determine whether L1-79 was a well-tolerated and clinically useful agent for the treatment of ASD, and to assess the PK and pharmacodynamics (PD) of four weeks of TID dosing with L1-79. […] The first cohort of 20 patients was comprised of three groups of patients: The first group of five patients received open-label L1-79 100 mg TID and underwent PK and EKG assessments. […] The PK and safety data from the open-label L1-79 100 mg TID group was submitted to FDA for review and acceptance before the second cohort was enrolled. The second cohort was procedurally identical to the first. The second cohort of 20 patients was comprised of the same three groups of patients but a dose of 200 mg TID was used instead of 100 mg TID. The key inclusion criteria were as follows: […] Safety was the primary endpoint of the study. The following safety endpoints were assessed: ECGs, physical exams, laboratory evaluations (hematology, chemistry and urinalysis), vital signs, including orthostatic blood pressure, adverse events (AEs) and concomitant medications. The incidence of AEs by primary system organ class and preferred term is presented in Table 7, and a listing of the AEs reported during the study is presented in Table 8. All AEs were mild to moderate in intensity and self-limited.

CC(N)(Cc1ccc(O)cc1)C(=O)O (racemic) [L1-79, α-methyl-DL-tyrosine]
safety and tolerability (28-day treatment period): safe and well tolerated
Incidence of AEs: Agitation (DB 100 mg TID, N = 10): 0[0] n(%)
Incidence of AEs: All primary SOC (DB 100 mg TID, N = 10): 1(10.0) n(%)
Incidence of AEs: Amylase † (DB 100 mg TID, N = 10): 0[0] n(%)
Incidence of AEs: Anxiety (DB 100 mg TID, N = 10): 0[0] n(%)
Incidence of AEs: Blood TSH † (DB 100 mg TID, N = 10): 0[0] n(%)
Incidence of AEs: Confusional state (DB 100 mg TID, N = 10): 0[0] n(%)
Incidence of AEs: Cough (DB 100 mg TID, N = 10): 0[0] n(%)
Incidence of AEs: Crystal urine present (DB 100 mg TID, N = 10): 0[0] n(%)
Incidence of AEs: Diarrhoea (DB 100 mg TID, N = 10): 0[0] n(%)
Incidence of AEs: Ear infection (DB 100 mg TID, N = 10): 0[0] n(%)
Incidence of AEs: Fatigue (DB 100 mg TID, N = 10): 0[0] n(%)
Incidence of AEs: GI disorders (DB 100 mg TID, N = 10): 0[0] n(%)
Incidence of AEs: General disorders & administration site conditions (DB 100 mg TID, N = 10): 0[0] n(%)
Incidence of AEs: Generalized tonic-clonic seizure (DB 100 mg TID, N = 10): 0[0] n(%)
Incidence of AEs: Immune system disorders (DB 100 mg TID, N = 10): 0[0] n(%)
Incidence of AEs: Infections and infestations (DB 100 mg TID, N = 10): 0[0] n(%)
Incidence of AEs: International self-injury (DB 100 mg TID, N = 10): 0[0] n(%)
Incidence of AEs: Investigations (DB 100 mg TID, N = 10): 0[0] n(%)
Incidence of AEs: Irritability (DB 100 mg TID, N = 10): 0[0] n(%)
Incidence of AEs: Nasopharyngitis (DB 100 mg TID, N = 10): 0[0] n(%)
Incidence of AEs: Nervous system disorders (DB 100 mg TID, N = 10): 1(10.0) n(%)
Incidence of AEs: Otitis externa (DB 100 mg TID, N = 10): 0[0] n(%)
Incidence of AEs: Psychiatric disorders (DB 100 mg TID, N = 10): 0[0] n(%)
Incidence of AEs: Pyrexia (DB 100 mg TID, N = 10): 0[0] n(%)
Incidence of AEs: Renal and urinary disorders (DB 100 mg TID, N = 10): 0[0] n(%)
Incidence of AEs: Respiratory, thoracic & mediastinal disorders (DB 100 mg TID, N = 10): 0[0] n(%)
Incidence of AEs: Seasonal allergy (DB 100 mg TID, N = 10): 0[0] n(%)
Incidence of AEs: Syncope (DB 100 mg TID, N = 10): 1(10.0) n(%)
Incidence of AEs: Urinary incontinence (DB 100 mg TID, N = 10): 0[0] n(%)
Number of AE events: All primary SOC (DB 100 mg TID, N = 10): 1 [e]
Number of AE events: Nervous system disorders (DB 100 mg TID, N = 10): 1 [e]
Number of AE events: Syncope (DB 100 mg TID, N = 10): 1 [e]
Incidence of AEs: Agitation (DB 200 mg TID, N = 11): 0[0] n(%)
Incidence of AEs: All primary SOC (DB 200 mg TID, N = 11): 6(54.5) n(%)
Incidence of AEs: Amylase † (DB 200 mg TID, N = 11): 0[0] n(%)
Incidence of AEs: Anxiety (DB 200 mg TID, N = 11): 1(9.1) n(%)
Incidence of AEs: Blood TSH † (DB 200 mg TID, N = 11): 1(9.1) n(%)
Incidence of AEs: Confusional state (DB 200 mg TID, N = 11): 0[0] n(%)
Incidence of AEs: Cough (DB 200 mg TID, N = 11): 0[0] n(%)
Incidence of AEs: Crystal urine present (DB 200 mg TID, N = 11): 2(18.2) n(%)
Incidence of AEs: Diarrhoea (DB 200 mg TID, N = 11): 3(27.3) n(%)
Incidence of AEs: Ear infection (DB 200 mg TID, N = 11): 1(9.1) n(%)
Incidence of AEs: Fatigue (DB 200 mg TID, N = 11): 0[0] n(%)
Incidence of AEs: GI disorders (DB 200 mg TID, N = 11): 3(27.3) n(%)
Incidence of AEs: General disorders & administration site conditions (DB 200 mg TID, N = 11): 0[0] n(%)
Incidence of AEs: Generalized tonic-clonic seizure (DB 200 mg TID, N = 11): 1(9.1) n(%)
Incidence of AEs: Immune system disorders (DB 200 mg TID, N = 11): 0[0] n(%)
Incidence of AEs: Infections and infestations (DB 200 mg TID, N = 11): 2(18.2) n(%)
Incidence of AEs: International self-injury (DB 200 mg TID, N = 11): 0[0] n(%)
Incidence of AEs: Investigations (DB 200 mg TID, N = 11): 3(27.3) n(%)
Incidence of AEs: Irritability (DB 200 mg TID, N = 11): 0[0] n(%)
Incidence of AEs: Nasopharyngitis (DB 200 mg TID, N = 11): 0[0] n(%)
Incidence of AEs: Nervous system disorders (DB 200 mg TID, N = 11): 1(9.1) n(%)
Incidence of AEs: Otitis externa (DB 200 mg TID, N = 11): 1(9.1) n(%)
Incidence of AEs: Psychiatric disorders (DB 200 mg TID, N = 11): 1(9.1) n(%)
Incidence of AEs: Pyrexia (DB 200 mg TID, N = 11): 0[0] n(%)
Incidence of AEs: Renal and urinary disorders (DB 200 mg TID, N = 11): 0[0] n(%)
Incidence of AEs: Respiratory, thoracic & mediastinal disorders (DB 200 mg TID, N = 11): 0[0] n(%)
Incidence of AEs: Seasonal allergy (DB 200 mg TID, N = 11): 0[0] n(%)
Incidence of AEs: Syncope (DB 200 mg TID, N = 11): 0[0] n(%)
Incidence of AEs: Urinary incontinence (DB 200 mg TID, N = 11): 0[0] n(%)
Number of AE events: All primary SOC (DB 200 mg TID, N = 11): 10 [e]
Number of AE events: Anxiety (DB 200 mg TID, N = 11): 1 [e]
Number of AE events: Blood TSH † (DB 200 mg TID, N = 11): 1 [e]
Number of AE events: Crystal urine present (DB 200 mg TID, N = 11): 2 [e]
Number of AE events: Diarrhoea (DB 200 mg TID, N = 11): 3 [e]
Number of AE events: Ear infection (DB 200 mg TID, N = 11): 1 [e]
Number of AE events: GI disorders (DB 200 mg TID, N = 11): 3 [e]
Number of AE events: Generalized tonic-clonic seizure (DB 200 mg TID, N = 11): 1 [e]
Number of AE events: Infections and infestations (DB 200 mg TID, N = 11): 2 [e]
Number of AE events: Investigations (DB 200 mg TID, N = 11): 3 [e]
Number of AE events: Nervous system disorders (DB 200 mg TID, N = 11): 1 [e]
Number of AE events: Otitis externa (DB 200 mg TID, N = 11): 1 [e]
Number of AE events: Psychiatric disorders (DB 200 mg TID, N = 11): 1 [e]
Incidence of AEs: Agitation (OL 100 mg TID, N = 5): 0[0] n(%)
Incidence of AEs: All primary SOC (OL 100 mg TID, N = 5): 2(40.0) n(%)
Incidence of AEs: Amylase † (OL 100 mg TID, N = 5): 0[0] n(%)
Incidence of AEs: Anxiety (OL 100 mg TID, N = 5): 1(20.0) n(%)
Incidence of AEs: Blood TSH † (OL 100 mg TID, N = 5): 0[0] n(%)
Incidence of AEs: Confusional state (OL 100 mg TID, N = 5): 1(20.0) n(%)
Incidence of AEs: Cough (OL 100 mg TID, N = 5): 0[0] n(%)
Incidence of AEs: Crystal urine present (OL 100 mg TID, N = 5): 0[0] n(%)
Incidence of AEs: Diarrhoea (OL 100 mg TID, N = 5): 0[0] n(%)
Incidence of AEs: Ear infection (OL 100 mg TID, N = 5): 0[0] n(%)
Incidence of AEs: Fatigue (OL 100 mg TID, N = 5): 0[0] n(%)
Incidence of AEs: GI disorders (OL 100 mg TID, N = 5): 0[0] n(%)
Incidence of AEs: General disorders & administration site conditions (OL 100 mg TID, N = 5): 0[0] n(%)
Incidence of AEs: Generalized tonic-clonic seizure (OL 100 mg TID, N = 5): 0[0] n(%)
Incidence of AEs: Immune system disorders (OL 100 mg TID, N = 5): 0[0] n(%)
Incidence of AEs: Infections and infestations (OL 100 mg TID, N = 5): 0[0] n(%)
Incidence of AEs: International self-injury (OL 100 mg TID, N = 5): 2(40.0) n(%)
Incidence of AEs: Investigations (OL 100 mg TID, N = 5): 0[0] n(%)
Incidence of AEs: Irritability (OL 100 mg TID, N = 5): 2(40.0) n(%)
